Values after ≈ are worked out from the molar mass of the structure shown. Where two headings read alike, the source gives them in different places.
What was measured:
[1] = system: E. faecium CL 4931 (VanA); experiment: microbe, parasite or virus in culture; type: cell-based; conditions: for MIC, CL4931: E. faecium CL 4931 (VanA)
In short: (§1)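 NCCLS M7-A4-based broth microdilution with twofold serial dilutions, incubated at 35° C; medium BHI for enterococci and VISA/MRSA, cation-adjusted Mueller-Hinton for E. coli. Inoculum about 1-5×10^6 CFU/ml (enterococci) or 3-7×10^5 CFU/ml (others); MIC is lowest concentration with no visible growth, read at 18-20 hr for E. coli, 22-24 hr otherwise.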

[2] = system: E. faecium CL 5053 (VanA); experiment: microbe, parasite or virus in culture; type: cell-based; conditions: for MIC, CL5053: E. faecium CL 5053 (VanA)
In short: as §1

[3] = system: E. faecium CL 5242 (VanA); experiment: microbe, parasite or virus in culture; type: cell-based; conditions: for MIC, CL5242: E. faecium CL 5242 (VanA)
In short: as §1

E. coli ASP #50 (envA+) = experiment: In vitro MIC panel assay (NCCLS broth microdilution); type: cell-based; conditions: Escherichia coli
From the text: (§2) National Committee for Clinical Laboratory Standards (NCCLS) guidelines [Methods for Dilution Antimicrobial Susceptibility Tests for Bacteria that Grow Aerobically-Fourth Edition; Approved Standard (NCCLS Document M7-A4, January 1997)] are used to establish the assay, although variations are made to optimize the published method according to the specific needs of the present investigation.
(§3) The test panel currently includes eight enterococci and 13 staphylococci, which are selected based upon their antibiotic susceptibility profiles. The methicillin-sensitive Staphylococcus aureus (MSSA) strain MB2985 (Smith isolate) is used to assesses the potential for serum protein binding of the compounds. The paired Gram-negative strains ASP #49 (envA-) and ASP #50 (envA+) (M. Salvatore/N. Lee) are included to judge membrane effects. Table 3 presents a detailed description of the strains included in the panel, including some of the sources of the strains of bacteria.
(§4) The glycopeptide antibiotic teicoplanin is included whenever possible.
(§5) TSB, containing 10% HS* for vancomycin intermediate S. aurcus/methicillin-resistant S. aureus (VISA/MRSA) strains, is inoculated from an appropriate source (frozen broth or agar slant) and grown approximately 17 hr at 35° C. with shaking at 220 rpm. Cultures are grown in tubes with a volume of 5 ml for enterococci and 2 ml for all other strains.
(§6) Four milliliter (4 ml) overnight culture is added to 36 ml physiological saline to obtain tenfold dilutions (enterococci). Overnight culture (0.4 ml) is added to 39.6 ml saline to obtain 100-fold dilutions (all strains except enterococci). Diluted cultures are maintained on ice until time of inoculation of test plates.
(§7) The number of CFU/mL is determined on BHI agar plates, although this is not done routinely because titers of overnight cultures are relatively constant. The test media include: • BHI for enterococci and VISA/MRSA; • MH II (i.e., cation-adjusted Mueller-Hinton broth) for MRS, MSS and E. coli.; • MH II+HSA for MSSA is prepared as follows: • a. 2×MHII+86mg/ml HSA • b. Dissolve 4.3 g HSA in 50 ml autoclaved 2x MH II. • c. pH to 7.0 by adding 2M MOPS, sodium. • d. Filter sterilize using 0.22 μm Coming cellulose acetate filter, used because of reported low protein binding. • e. 1×MH II+43 mg/ml HSA • f. Dilute the 2×medium twofold and filter as above. 5.8.6. Preparation of Test Plates
(§8) Using a Denley liquid handling system (or similar automatic device), 100 μ1×medium is added to each well in columns 2-12 of a 96-well microtiter dish. Using a multichannel pipettor, 100 μl 2×medium is added to each well in column 1. Plates may be filled on the day prior to assay, wrapped in plastic bags and refrigerated.
(§9) Vancomycin, Schering 29482, and teicoplanin are prepared on a weight per volume basis using 10 mM 3-(N-morpholino)propane-sulfonic acid (MOPS) buffer pH 7. Test compounds are received in solution in appropriate solvent (typically as 1 mg/ml in DMSO) or are dissolved in appropriate solvent prior to further dilution in 10 mM MOPS buffer, ph7. Consistent with NCCLS guidelines, antibiotics are handled aseptically but are not otherwise sterilized.
(§10) 100 μl appropriately diluted antibiotic solution is added to the first well of the designated row of the 96-well microtiter dish and serially diluted by twofold across the row using the Denley liquid handling system. With the aid of a Dynatech NEC 2000 inoculator, each well of the microtiter dish is inoculated with 1.5 μl diluted overnight culture, yielding approximately 1-5×10^6 CFU/ml for enterococci and approximately 3-7×10^5 CFU/ml for all other strains. Dishes are placed in stacks of no more than five, wrapped in plastic bags and incubated at 35° C. • Indication of result(s) type (% INH, IC50, Zone size, etc.) • MIC=minimum inhibitory concentration ps 5.8.9. Interpretation of the Results on the Basis of Activity […]

E. faecalis MB2864 = experiment: as above; type: cell-based; conditions: Enterococcus faecalis
From the text: as §2, §3, §4, §5, §6, §7, §8, §9, §10

E. faecium RLA1 = experiment: as above; type: cell-based; conditions: Enterococcus faecium
From the text: as §2, §3, §4, §5, §6, §7, §8, §9, §10

MRCNS CL 227 (S. hom.) = experiment: as above; type: cell-based
From the text: as §2, §3, §4, §5, §6, §7, §8, §9, §10

MRSA CL 3033 = experiment: as above; type: cell-based; conditions: Staphylococcus aureus
From the text: as §2, §3, §4, §5, §6, §7, §8, §9, §10

MRSA COL = experiment: as above; type: cell-based; conditions: Staphylococcus aureus
From the text: as §2, §3, §4, §5, §6, §7, §8, §9, §10

[4] = system: E. faecalis CL 4877 (VanB); experiment: microbe, parasite or virus in culture; type: cell-based; conditions: for MIC, CL4877: E. faecalis CL 4877 (VanB)
In short: (§11)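 Twofold broth microdilution per modified NCCLS M7-A4, 35 °C. Enterococci and VISA/MRSA in BHI (VISA/MRSA precultured in TSB + 10% HS), E. coli in MH II. Inocula ~1-5×10^6 CFU/ml for enterococci, ~3-7×10^5 CFU/ml otherwise. MIC is the lowest concentration with no visible growth, read at 18-20 hr (E. coli) or 22-24 hr.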

VISA/MRSA CL 5705 = experiment: In vitro MIC panel assay (NCCLS broth microdilution); type: cell-based, S. aureus; conditions: Staphylococcus aureus
From the text: as §2, §3
(§12) The glycopeptide antibiotic teicoplanin is included whenever possible. […]
(§13) The number of CFU/mL is determined on BHI agar plates, although this is not done routinely because titers of overnight cultures are relatively constant. […]

VISA/MRSA CL 5706 = experiment: as above; type: cell-based, S. aureus; conditions: Staphylococcus aureus
From the text: as §2, §3, §12, §13

S. aureus MB 2985 = experiment: MIC by microdilution in Mueller-Hinton broth (in vivo study); type: cell-based; conditions: Staphylococcus aureus, MB2985, inoculum 1.4 × 10^5 cfu/mL in cation adjusted MHB, read-out: MIC
Experimental: The MIC is determined by microdilution in Mueller-Hinton broth (MHB) according to the National Committee for Clinical Laboratory Standards guidelines after incubation for 24 hours. Enterococci are tested in cation-supplemented Mueller-Hinton broth at 1.4×10^5 cfu/ml. MIC is defined as the lowest concentration of antibiotic, which inhibits visible growth.

% Plasma Bound = type: in vitro ADME
[5] = system: CL 4931, CL 5053, CL 5242 and CL 4877; type: cell-based, E. faecium, E. faecalis
In short: as §11

Q: With `CN[C@H](CC(C)C)C(=O)N[C@H]1C(=O)N[C@@H](CC(N)=O)C(=O)N[C@H]2C(=O)N[C@H]3C(=O)N[C@H](C(=O)N[C@H](C(=O)O)c4cc(O)cc(O)c4-c4cc3ccc4O)[C@H](O)c3ccc(c(Cl)c3)Oc3cc2cc(c3O[C@@H]2O[C@H](CO)[C@@H](O)[C@H](O)[C@H]2O[C@H]2C[C@](C)(N)[C@H](O)[C@H](C)O2)Oc2ccc(cc2Cl)[C@H]1O` [Vancomycin, vancomycin, reference compound] as the compound, how does the MIC ([1]; Enterococcus faecium) read?
A: The MIC was 2050 mg/L (≈ 1410 µM).

Q: And the MIC, CL4931 ([1]; Table 9)?
A: Its MIC, CL4931 is 2050 mg/L (≈ 1410 µM).

Q: What about the MIC, CL4931 ([1]; Table 10) of the same compound?
A: The MIC, CL4931 was 2050 mg/L (≈ 1410 µM).

Q: What about the “CL4931 (in vitro testing)” value ([1]; Tables 7 and 8, unit not given) of the same compound?
A: The value was 2048.

Q: What about the MIC ([2]; Enterococcus faecium) of the same compound?
A: The MIC was 2050 mg/L (≈ 1410 µM).

Q: What about the MIC, CL5053 ([2]; Table 9) of the same compound?
A: Its MIC, CL5053 is 2050 mg/L (≈ 1410 µM).

Q: And the MIC, CL5053 ([2]; Table 10)?
A: Its MIC, CL5053 is 2050 mg/L (≈ 1410 µM).

Q: What about the “CL5053 (in vitro testing)” value ([2]; Tables 7 and 8, unit not given) of the same compound?
A: Its value is 2048.

Q: And the MIC ([3]; Enterococcus faecium)?
A: Its MIC is 128 mg/L (≈ 88.3 µM).

Q: And the MIC, CL5242 ([3]; Table 9)?
A: The MIC, CL5242 was 512 mg/L (≈ 353 µM).

Q: What about the MIC, CL5242 ([3]; Table 10) of the same compound?
A: The MIC, CL5242 was 512 mg/L (≈ 353 µM).

Q: And the “CL5242 (in vitro testing)” value ([3]; Tables 7 and 8, unit not given)?
A: The value was 512.

Q: And the MIC (E. coli ASP #50 (envA+))?
A: The MIC was 256 mg/L (≈ 177 µM).

Q: And the MIC (E. faecalis MB2864)?
A: The MIC was 2 mg/L (≈ 1.38 µM).

Q: What about the MIC (E. faecium RLA1) of the same compound?
A: The MIC was 2 mg/L (≈ 1.38 µM).

Q: And the MIC (MRCNS CL 227 (S. hom.))?
A: The MIC was 1 mg/L (≈ 0.69 µM).

Q: What about the MIC (MRSA CL 3033) of the same compound?
A: The MIC was 0.5 to 1 mg/L (≈ 0.345 to 0.69 µM).

Q: What about the MIC (MRSA COL) of the same compound?
A: The MIC was 1 mg/L (≈ 0.69 µM).

Q: And the MIC ([4]; Enterococcus faecalis)?
A: Its MIC is 2050 mg/L (≈ 1410 µM).

Q: What about the MIC, CL4877 ([4]; Table 9) of the same compound?
A: The MIC, CL4877 was 2050 mg/L (≈ 1410 µM).

Q: And the MIC, CL4877 ([4]; Table 10)?
A: Its MIC, CL4877 is 2050 mg/L (≈ 1410 µM).

Q: And the “CL4877 (in vitro testing)” value ([4]; Tables 7 and 8, unit not given)?
A: Its value is 2048.

Q: What about the MIC (VISA/MRSA CL 5705) of the same compound?
A: Its MIC is 2 to 4 mg/L (≈ 1.38 to 2.76 µM).

Q: What about the MIC (VISA/MRSA CL 5706) of the same compound?
A: Its MIC is 4 to 8 mg/L (≈ 2.76 to 5.52 µM).

Q: What about the MIC (S. aureus MB 2985) of the same compound?
A: Its MIC is 0.5 mg/L (≈ 0.345 µM).

Q: And the “% Plasma Bound” value (% Plasma Bound)?
A: The value was 55%.

Q: And the Mean ([5]; Table 9, mean MIC over CL4931, CL5053, CL5242, CL4877)?
A: Its Mean is 1664.0.

Q: And the Mean ([5]; Table 10, mean MIC over CL4931, CL5053, CL5242, CL4877)?
A: Its Mean is 1536.0.

Q: And the Mean ([5]; mean of CL4931, CL5053, CL5242, CL4877, unit not given)?
A: The Mean was 1664.0.

— US6841661B2, “Glycopeptide antibacterial compounds, compositions containing same and methods of using same” (Princeton Univerisity, priority 1999, dated 2005)
